Patent publication US20260091103A1, “NOVEL COMPOSITIONS COMPRISING TERPENOID AND MACROMOLECULE, AND USES THEREOF” (Powin Biomedical Co., Ltd., priority 2022, published 2026)
“Also recorded” adds a separate entry of the source.

Legend:
dendritic cells (CD11c+) = test: Antigen-presenting cell recruitment in injected quadriceps muscle: dendritic cells (flow cytometry); format: in vivo, BALB/c mice; details: 50 μL i.m. into right quadriceps, versus vehicle-injected left quadriceps
Method: (§1) 15 BALB/c mice were randomly assigned into 5 groups (three mice per group), which were Paraffin oil@HACH group, Squalane@HACH group, Squalene@HACH group, Ocimene@HACH group, and Farnesene@HACH group.
(§2) 50 μL of the composition comprising Paraffin oil@HACH particles, composition comprising Squalane@HACH particles, composition comprising Squalene@HACH particles, composition comprising Ocimene@HACH particles, or composition comprising Farnesene@HACH particles (the test samples in this experiment) was injected intramuscularly into the right quadriceps of mice in the Paraffin oil@HACH group, Squalane@HACH group, Squalene@HACH group, Ocimene@HACH group, and Farnesene@HACH group, respectively; and 50 μL of sodium citrate buffer (pH=6.5) (the vehicle control in this experiment) was injected intramuscularly into the left quadriceps of mice in these groups to monitor the effect induced by the injection on each mouse.
(§3) The mice in each group were sacrificed at 5th day after injection.
(§4) The left quadriceps muscles and the right quadriceps muscles of each mouse were harvested respectively. The tendons were removed, and muscles were digested with 3 mL of phosphate buffered saline (PBS) containing 0.05% (w/v) type II collagenase, 10 μg/mL of DNase I, and 0.5% BSA at 37° C. for 40 min. The muscle digestion was quenched by the addition of excess medium; and then the cell suspension was collected by centrifugation at 1200 rpm for 5 min, resuspended in PBS, and filtered through a 70-μm nylon mesh (BD-Biosciences).
The degree of dendritic cell (CD11c^+) recruitment in each mouse was assessed according to the following formula (VI): […]
(§5) The experimental procedure was roughly the same as that described in Experiment 1-4. The only differences were the compositions administered to the mice.
(§6) Cholesterol group: 50 μL of the N-methyl-2-pyrrolidone (NMP) solution comprising cholesterol (0.25 mg/mL) (the test sample in this group) was injected intramuscularly into the right quadriceps of mice; and 50 μL of N-methyl-2-pyrrolidone solution (the vehicle control in this group) was injected intramuscularly into the left quadriceps of mice to monitor the effect induced by the injection on each mouse.
as §6, with “Squalene” for “Cholesterol”, “squalene (50 μL/mL)” for “cholesterol (0.25 mg/mL)”

macrophages (CD11b+) = test: Antigen-presenting cell recruitment in injected quadriceps muscle: macrophages (flow cytometry); format: in vivo, BALB/c mice; details: 50 μL i.m. into right quadriceps, versus vehicle-injected left quadriceps
Method: as §1, §2, §3, §4
The degree of macrophage cell (CD11b^+) recruitment in each mouse was assessed according to the following formula (VII): […]
as §5, §6
as §6, with “Squalene” for “Cholesterol”, “squalene (50 μL/mL)” for “cholesterol (0.25 mg/mL)”

4T1 cells = test: Anti-tumor activity in 4T1 breast cancer mouse model; format: in vivo, BALB/c mice; set-up: key to Survival Status on Day 53: Dead means that the mouse died because of the tumor; Dead * means that the mouse died from attack by other mice
Method: On Day 0, after the injection process as described above was completed, 0.05 mL of the phosphate buffered saline (PBS) comprising 4T1 cells (2×10^6 cells/mL; 4T1 cell is abreast cancer cell line) was injected subcutaneously into the abdominal mammary fat pad of the mice in each group, and the tumor volume and survival status of mice were initially monitored on this day (Day 0). Tumor volume was calculated by ½*(4*3.14/3)*(length/2)*(width/2)*height*1000, and the observation of the tumor volume and survival status was stopped if the mouse was defined as either death or paralysis or the tumor volume of the mouse exceeding 1000 mm^3.

CD4+ T cell = test: T cell immunity: CD4+ T cells in splenocytes of immunized mice (flow cytometry); details: splenocytes on day 28; i.m. on day 0 and day 14
Method: (§7) 12 BALB/c mice were randomly assigned into 4 groups (three mice per group), which were PBS group, WT1 group, WT1+IFN-alpha-based adjuvant group, and WT1+Squalene@HACH group.
(§8) PBS group: 50 μL of the phosphate buffered saline was injected intramuscularly into both of the left and right quadriceps of mice on day 0 and day 14.
(§9) WT1 group: 50 μL of the sodium citrate solution comprising 25 μL of WT1 protein was injected intramuscularly into both of the left and right quadriceps of mice on day 0 and day 14. […]
(§10) The splenocytes were isolated by the following procedure: the spleen was gently pressed with the plunger seal of a 5-mL syringe on a 70-μm cell strainer into a 50-mL tube and washed through a cell strainer with RPMI 1640 containing 10% (v/v) FBS. […] The cell solution was counted and diluted to the desired cell concentrations.
(§11) The cell suspensions obtained from the spleen of mice in each group were respectively mixed with a medium containing titrated fluorescent conjugates of monoclonal antibodies CD8a-Alexa Fluor 647 (BD Pharmingen), and CD4-FITC (Thermo Fisher). […] Finally, the stained cells were washed with staining buffer and analyzed by BD Accuri™ C6 flow cytometer.

CD8+ T cell = test: T cell immunity: CD8+ T cells in splenocytes of immunized mice (flow cytometry); details: splenocytes on day 28; i.m. on day 0 and day 14
Method: as §7, §8, §9, §10, §11

[1] = Condition suitable for self-assembly of Squalene@HACH particles (appearance of 28 compositions); format: physicochemical; details: by together forming squalene@HACH particles
Method: In this experiment, the condition suitable for self-assembly of Squalene@HACH particles was assessed and shown in a Ternary diagram.
There were 28 groups in this experiment, that is, the first to the 28th group. The preparation procedure of the compositions in each group was roughly the same as the experimental procedure of Composition comprising Squalene@HACH particles described in Experiment 1-1-4. The only differences were the weight of squalene, the weight of HACH, and the weight of sodium citrate solution (aqueous buffer solution).
Squalene@HACH particles in the compositions were detected and analyzed by dynamic light scattering, particle size analyzer, or transmission electron microscope. Moreover, please note that if the self-assembly of the Squalene@HACH particles occur in the composition, the composition would be a milk-like mixture solution (milk-like suspension).

[2] = individual mouse, i.m. on Day −14 and Day 0, 4T1 cells s.c. on Day 0

Compound	Dendritic cells (CD11c+) recruitment, in words (dendritic cells (CD11c+))	Macrophages (CD11b+) recruitment, in words (macrophages (CD11b+))	further results
CCCCCCCCCCCCCCCCCCN [ODA, octadecan-1-amine]	lack the ability to recruit	lack the ability to recruit	–
CC(C)CCC[C@@H](C)[C@H]1CC[C@H]2[C@@H]3CC=C4C[C@@H](O)CC[C@]4(C)[C@H]3CC[C@]12C [cholesterol]	lack the ability to recruit	lack the ability to recruit	–
CC(C)=CCC/C(C)=C/CC/C(C)=C/CC/C=C(\C)CC/C=C(\C)CCC=C(C)C [squalene]	lack the ability to recruit	lack the ability to recruit	–
WT1: WT1 protein, targeted antigen, given alone in sodium citrate solution	lacks the ability to recruit	lacks the ability to recruit	Survival Status on Day 53 (4T1 cells; [2]): Dead; The day of the Tumor Growth (4T1 cells; [2]): Day 18; also recorded: Day 21; also recorded: Day 25; Mice died on Day 53 (4T1 cells; of 6 mice per group): 6 mice; Mice in which tumor developed (4T1 cells; of 6 mice per group): 6 mice; Tumor was initially developed between (4T1 cells; range over tumor-bearing mice of the group): 18 to 25 days; CD4+ T cell (CD4+ T cell): 34.1%; CD8+ T cell (CD8+ T cell): 27.5%
hyaluronic acid-cholesterol conjugate [HACH]	–	–	Weight units of squalene coated by 1 weight unit of HACH [1]: 80 weight units
